Data published in ChEMBL document CHEMBL1153050, “Amidine derived inhibitors of acid-sensing ion channel-3 (ASIC3)” (Bioorg Med Chem Lett, 2009).
The source made the active and inactive calls. The calls are words filed in the database; no cut-off is given here.

Experiments:
[1] = target: T1, Acid-sensing ion channel 3 (Homo sapiens) (UniProt Q9UHC3); assay: Inhibition of ASIC3 at 1 uM by patch-clamp electrophysiology assay relative to baseline peak current
T1 sequence (whole entry): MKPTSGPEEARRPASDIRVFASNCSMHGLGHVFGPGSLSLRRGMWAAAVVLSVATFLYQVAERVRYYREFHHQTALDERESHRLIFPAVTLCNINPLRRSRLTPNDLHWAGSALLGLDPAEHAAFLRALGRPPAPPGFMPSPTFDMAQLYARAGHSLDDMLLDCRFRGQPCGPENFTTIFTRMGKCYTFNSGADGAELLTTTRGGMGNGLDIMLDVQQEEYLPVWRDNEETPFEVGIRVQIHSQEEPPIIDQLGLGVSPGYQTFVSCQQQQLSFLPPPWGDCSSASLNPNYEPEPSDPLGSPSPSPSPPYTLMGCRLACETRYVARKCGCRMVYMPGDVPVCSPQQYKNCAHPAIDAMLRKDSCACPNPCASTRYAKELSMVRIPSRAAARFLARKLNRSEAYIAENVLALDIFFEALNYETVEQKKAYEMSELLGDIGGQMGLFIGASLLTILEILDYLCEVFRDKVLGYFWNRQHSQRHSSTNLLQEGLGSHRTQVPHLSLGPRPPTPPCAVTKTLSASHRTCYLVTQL

[2] = target: T2, Acid-sensing ion channel 3 (Homo sapiens, UniProt Q9UHC3); assay: Inhibition of ASIC3 by patch-clamp electrophysiology assay
T2 sequence (Q9UHC3 whole entry): T1 sequence (whole entry)

[3] = target: T1, Acid-sensing ion channel 3 (Homo sapiens); assay: Inhibition of ASIC3 at 10 uM by patch-clamp electrophysiology assay relative to baseline peak current
Rattus norvegicus [4] = assay: Analgesic activity against complete Freund's adjuvant-induced […] in Sprague-Dawley rat assessed as reversal of mechanical hypersensitivity at 30 mg/kg, ip after 30 mins; type: functional, organism-based; parameters: dose 30 mg/kg
Rattus norvegicus [5] = assay: Analgesic activity against complete Freund's adjuvant-induced […] in Sprague-Dawley rat assessed as reversal of mechanical hypersensitivity at 20 mg/kg, po after 30 mins; type: functional, organism-based; parameters: dose 20 mg/kg
[6] = Plasma clearance in iv dosed rat; type: ADME, organism-based
[7] = Half life in iv dosed rat plasma; type: ADME, organism-based
[8] = Blood clearance in iv dosed rat; type: ADME, organism-based; conditions: whole blood
[9] = Half life in iv dosed rat blood; type: ADME, organism-based; conditions: whole blood

| inhibition [1] | IC50 [2] | inhibition [3] | SMILES | also measured |
| --- | --- | --- | --- | --- |
| 84% | 291 nM | – | N=C(N)c1ccc2[nH]c(-c3cc(Cl)nc(Cl)c3)cc2c1 | – |
| 14% | – | – | Cn1c(-c2ccc(C(=N)N)cc2)cc2cc(C(=N)N)ccc21 | – |
| 18% | – | – | N=C(N)c1ccc2cc(-c3ccccc3)[nH]c2c1 | – |
| 91% | 135 nM | – | N=C(N)c1ccc2[nH]c(-c3cc(Cl)cc(Cl)c3Cl)cc2c1 | – |
| 93% | 59 nM | 96% | N=C(N)c1ccc2[nH]c(-c3cc(F)cc(Br)c3)cc2c1 | – |
| 87% | 51 nM | – | Cc1cc(Cl)cc(-c2cc3cc(C(=N)N)ccc3[nH]2)c1 | – |
| – | – | 53% | N=C(N)c1ccc(-c2nc3cc(C(=N)N)ccc3[nH]2)cc1 | – |
| 83% | 114 nM | – | N=C(N)c1ccc2[nH]c(-c3cc(Cl)cc(CNc4ccccc4)c3)cc2c1 | – |
| 92% | 133 nM | 98% | N=C(N)c1ccc2[nH]c(-c3cc(Cl)cc(Cl)c3)cc2c1 | Activity (Rattus norvegicus [4]): Active; Activity (Rattus norvegicus [5]): Active; clearance [6]: 8.5 mL/min/kg; half-life [7]: 2 h; clearance [8]: 8.5 mL/min/kg; half-life [9]: 4.4 h |
| 82% | 278 nM | 99% | N=C(N)c1ccc2[nH]c(-c3cc(F)cc(Cl)c3)cc2c1 | – |
| 94% | – | – | N=C(N)c1ccc2[nH]c(-c3cc(Cl)cc(-c4ccccc4)c3)cc2c1 | – |
| – | 2760 nM | 88% | N=C(N)c1ccc2[nH]c(-c3ccccc3)cc2c1 | – |
| 78% | 95 nM | – | N=C(N)c1ccc2[nH]c(-c3cc(N)cc(Cl)c3)cc2c1 | – |
| 33% | – | 83% | N=C(N)c1ccc(-c2cc3ccc(C(=N)N)cc3[nH]2)cc1 | – |
| 91% | 77 nM | – | N=C(N)c1ccc2[nH]c(-c3cc(Cl)cc(NCc4ccccc4)c3)cc2c1 | – |
| 92% | 59 nM | 92% | N=C(N)c1ccc2[nH]c(-c3cc(Br)cc(Br)c3)cc2c1 | – |
| – | – | 46% | N=C(N)c1ccc(-c2cc3ccccc3[nH]2)cc1 | – |
| 77% | 374 nM | 98% | COc1cc(F)cc(-c2cc3cc(C(=N)N)ccc3[nH]2)c1 | – |

| SMILES | inhibition [1] | IC50 [2] | inhibition [3] | also measured |
| --- | --- | --- | --- | --- |
| N#Cc1c(Cl)cc(-c2cc3cc(C(=N)N)ccc3[nH]2)cc1Cl | 83% | 272 nM | – | – |
